Experimental data: patent publication US20120269725A1, “TARGETED RADIOLABELED COMPOUNDS AND THEIR USE FOR THE TREATMENT AND DIAGNOSIS OF CANCER” (priority 2009, published 2012)
Read-outs that look alike come from different tables or passages of the source.

Key:
[1] = biological target: human BChE (Homo sapiens, UniProt P06276); assay: UV-based BChE inhibition (IC50) assay; format: biochemical; conditions: non-radioactive compounds, 30 min preincubation, room temperature, pH 7.0
Procedure: Assays employed to determine IC50 were developed by the present inventors and utilized UV based detection. For UV-based assays, a BChE solution in 0.1 M potassium phosphate, pH 7.0 was placed in the desired numbers of wells of a 96-well plate (0.05 mL/well). The investigated compound was diluted in DMSO to produce concentrations from 0 to 10 μM in DMSO and 0.002 mL/well of these dilutions was added to BChE-containing wells. Reaction mixtures were incubated at room temperature for 30 min. The reagent consisting of BChE substrate, 1 mM (2-mercaptoethyl)trimethylammonium iodide butyrate, and 0.5 mM 5,5′-dithio-bis(2-nitrobenzoic acid) in 0.1 M potassium phosphate, pH 7.0 (prepared fresh for each assay) was added, 0.25 mL per well. The mixture was incubated at room temperature and the OD at λ=405 nm was read at 1, 2, 3, 4, 5, 10, and 15 min after the addition of this reagent using the Opsys MR™plate reader (Dynex Technologies, Chantilly, Va.). Data were analyzed using the IC50 nonlinear regression function provided by GraphPad Prism (GraphPad Software, La Jolla, Calif.).
The compound binding of several non-radioactive compounds of the method of the invention were analyzed by the aforementioned human BChE compound binding study to determine their affinity for the therapeutic target (Table 1).

[2] = system: IP OVCAR-3 tumors; assay: Pilot therapy of IP OVCAR-3 tumors in athymic mice; format: in vivo; conditions: for whole body retention, median / whole body retention: after 14 days; for whole body retention: value with spread in brackets
Source text: In pilot therapy experiments, the effects of unmodified ^125IUdR on the growth of IP OVCAR-3 tumors were compared to the therapeutic effects of the 6b diastereomeric mixture and 7b diastereomeric mixture. The tumor model used in this study, OVCAR-3 cell line, was established from the malignant ascites of a patient with progressive adenocarcinoma of the ovary after many types of chemotherapy including cyclophosphamide, adriamycin, and cisplatin. OVCAR-3 is resistant in vitro to clinically relevant concentrations of adriamycin, melphalan, and cisplatin (Hamilton T C, Young R C, Louie K G, Behrens B C, McKoy W M, Grotzinger K R, Ozols R F. Characterization of a xenograft model of human ovarian carcinoma which produces ascites and intraabdominal carcinomatosis in mice. Cancer Res. 1984; 44:5286-90.). In immunodeficient mice, IP injected OVCAR-3 cells produce malignant ascites, peritoneal carcinomatosis, and serosal and visceral seeding that, if left untreated, leads to death from respiratory compromise, hemorrhage from invasion of intra-abdominal blood vessels, and bowel obstruction. Substantial literature data (nearly 100 publications) confirm that this tumor model has pathogenesis and metastatic properties similar to those of human ovarian cancer.
Mice received IP implants of approximately 2.4×10^8 OVCAR-3 cells/mouse isolated from fresh OVCAR-3 mouse ascites. Cell viability was measured before and after injection, and was ≧90%. Four days after tumor cells were implanted, the mice received SQ transponders and were randomized via a lottery into four groups: NT—untreated controls that received IP injection of PBS; 7b group—receiving IP doses of the 7b diastereomeric mixture in PBS (average 0.4 mCi/mouse (14.8 MBq)); 6b group—receiving IP doses of the 6b diastereomeric mixture in PBS (average dose 0.36 mCi/mouse (13.3 MBq)); and ^125IUdR group—receiving IP doses of ^125IUdR (average 0.43 mCi/mouse (15.9 MBq)) in PBS. Mice were monitored three times per week.
Mice in the 6b group received 0.22 mCi (8.1 MBq) 6b diastereomeric mixture on day 27; and on day 28 mice in ^125IUdR group were treated with additional 0.2 mCi (7.4 MBq) ^125IUdR. Slight differences in the dosing schedule and the administered doses are because of the required large quantities of the compounds. For these experiments, ˜20 mCi of no-carrier added and radiochemically pure compounds were required. Each agent was purified on the analytical reversed phase HPLC column. The use of preparative columns in this case is impractical because the products are recovered in large volumes of acetonitrile-containing solvent that must be evaporated to dryness before the use in mice.
Overall, mice in the 7b group were treated with an average of 0.58 mCi (21.5 MBq) 7b diastereomeric mixture; mice in the 6b group were treated with an average of 0.58 mCi (21.5 MBq) 6b diastereomeric mixture, and mice in the ^125IUdR group were treated with an average of 0.63 mCi (23.3 MBq) ^125IUdR.
The therapy was terminated 7 weeks after the first dosing. Mice were sacrificed for the biodistribution study. Blood and solid tumor were taken for the evaluation of their radioactive content. The peritoneal cavity was lavaged with 2-mL aliquots of PBS, and PBS wash and ascites were collected. One mL of the ascites suspension with cancer cells was taken for gamma counting. The rest of the abdominal fluid was centrifuged and 0.5 mL of the supernatant was reserved for gamma counting. The weight of the cell pellet and the supernatant were determined.
Two weeks after the first dose of radiolabeled compounds, the whole body radioactivity was measured to determine to what extent the additional doses of the compounds may increase the radiation burden and therefore may be detrimental to the animal health (FIG. 11B). The absolute amounts were low and ranged from […] for the 6b group to […] in the 7b group. […]

[3] = system: subcutaneous LS174T tumors (human colorectal adenocarcinoma); assay: Biodistribution, clearance and planar imaging in athymic mice bearing subcutaneous LS174T xenografts; format: in vivo, athymic NCr-nu/nu mice
Procedure: The in vivo properties and pharmacology of several compounds of the present invention were initially tested in athymic mice bearing subcutaneous LS174T tumors (human colorectal adenocarcinoma), which have several desirable properties such as rapid growth when implanted subcutaneously (SQ), good vascularization and the availability of considerable historical data for the parent compound IUdR. The clearance rates from blood, tumor, and associated organs were analyzed to determine the structure-pharmacokinetics relationship. The first compounds studied were 6b-fast and 6b-slow. Four-to-six-weeks old female athymic NCr-nu/nu mice (NCI-Frederic, Md., USA) were allowed to acclimate in Applicants' facility after delivery for no less than 5 days. All protocols involving animals were approved by the University of Nebraska Institutional Animal Care and Use Committee. Mice were housed in microisolator cages with free access to sterilized standard rodent diet and water. LS174T cells in 0.1 mL of serum-free medium were implanted SQ at 5×10^6 cells/mouse. One week later identification transponders were implanted, also SQ. Body weights and tumor sizes were monitored twice weekly, and approximately 10 days after the cell implant, mice were randomized for biodistribution studies.
Each of the two isomers, 6b-fast and 6b-slow, was tested independently in separate groups of mice. The comparison to the parent compound, IUdR, was made by co-injecting ^131IUdR with a particular ^125I-labeled diastereomer. Compounds were administered intravenously (IV) via a tail vein.
Biodistribution was conducted at 1 h, 4 h, 24 and 48 h after the administration of radiolabeled compounds (n=6 per time point). The injection doses contained approximately 1 μCi (37 kBq) ^131IUdR and 5 μCi (185 kBq) ^125I-labeled 6b-fast or 6b-slow dissolved in 0.2 mL phosphate buffered saline containing 0.1% bovine serum albumin, pH 7.2 (PBS). All syringes were weighted after loading with the compound solution and immediately after the injection to determine the weight of the injected dose. Triplicate standards of the injected dose were prepared in PBS and counted in a gamma counter just before the beginning of the experiment. The radioactive content of these standards was also determined alongside all tissues after the necropsy to correct the tissue uptake for the decay of the radioisotope. Blood, liver, spleen, heart, lungs, kidneys, brain, tumor and tail were collected during necropsy. Tissues were rinsed in ice-cold saline, patted dry and weighed. The tail was collected to validate the quality of the IV injections.
FIG. 7 presents whole body images for a typical time course distribution (24 h, 48 h, and 72 h) of 6b administered as a diastereomeric mixture in LS174T-bearing athymic mice. The images were acquired 1, 2, and 3 days after the administration of the compound. […] It is also apparent that based on pharmacokinetics, the use of these compounds can be tailored to a specific malignancy and its anatomical location.

Chain of human BChE (P06276 29-602): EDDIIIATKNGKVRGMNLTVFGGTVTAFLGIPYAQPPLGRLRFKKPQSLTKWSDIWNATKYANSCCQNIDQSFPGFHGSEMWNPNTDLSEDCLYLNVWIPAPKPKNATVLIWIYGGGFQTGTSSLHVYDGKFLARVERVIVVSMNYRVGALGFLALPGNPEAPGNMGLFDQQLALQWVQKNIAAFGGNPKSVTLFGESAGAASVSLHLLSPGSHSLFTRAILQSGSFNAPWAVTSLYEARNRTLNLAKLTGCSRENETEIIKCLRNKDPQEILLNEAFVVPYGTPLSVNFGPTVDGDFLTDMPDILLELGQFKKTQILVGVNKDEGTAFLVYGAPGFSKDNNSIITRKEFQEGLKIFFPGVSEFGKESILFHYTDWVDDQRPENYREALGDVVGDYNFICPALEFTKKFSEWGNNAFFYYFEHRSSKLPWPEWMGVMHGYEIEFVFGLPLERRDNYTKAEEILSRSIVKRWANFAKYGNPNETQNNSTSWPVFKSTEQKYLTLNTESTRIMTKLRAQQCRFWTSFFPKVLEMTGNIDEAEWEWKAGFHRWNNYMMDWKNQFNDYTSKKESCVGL

Compound | IC50 ([1]; IC50 (nM)) [nM] | other results
CC(C)(C)c1cc(C(C)(C)C)c2c(c1F)COP(=O)(OCC1OC(n3cc(I)c(=O)[nH]c3=O)CC1F)O2 (single isomer, unassigned) [24 - fast, 5-Iodo-5′-O-[cyclo-3,5-Di-(tert-butyl)-6-fluoroSaligenyl]-3′-fluoro-2′,3′-dideoxyuridine Monophosphate] | 549 | –
O=c1[nH]c(=O)n(C2CC(O)C(COP3(=O)OCc4ccccc4O3)O2)cc1I (single isomer, unassigned) [6 - slow, 5-Iodo-5′-O-cycloSaligenyl-2′-deoxyuridine Monophosphate] | 9.2 | –
O=c1[nH]c(=O)n([C@H]2C[C@H](O)[C@@H](CO)O2)cc1[125I] [^125IUdR, 5-[^125I]-iodo-2′-deoxyuridine, reference compound] | – | whole body retention, median [2]: 1.08 % ID; whole body retention [2]: 0.97 (0.11) % ID
CC(C)(C)c1cc(C(C)(C)C)c2c(c1F)COP(=O)(OC[C@H]1O[C@@H](n3cc(I)c(=O)[nH]c3=O)C[C@@H]1O)O2 (stereo partly drawn) [8 - slow, 5-Iodo-5′-O-[cyclo-3,5-di-(tert-butyl)-6-fluoroSaligenyl]-2′-deoxyuridine Monophosphate] | – | IC50 ([1]; read-out: IC50): 50.1 nM
O=c1[nH]c(=O)n(C2CC(O)C(COP3(=O)OCc4ccccc4O3)O2)cc1I (single isomer, unassigned) [6 - fast, 5-Iodo-5′-O-cycloSaligenyl-2′-deoxyuridine Monophosphate] | 1280 | –
CC(C)(C)c1cc(C(C)(C)C)c2c(c1F)COP(=O)(OCC1OC(n3cc(I)c(=O)[nH]c3=O)CC1F)O2 (single isomer, unassigned) [24 - slow, 5-Iodo-5′-O-[cyclo-3,5-Di-(tert-butyl)-6-fluoroSaligenyl]-3′-fluoro-2′,3′-dideoxyuridine Monophosphate] | 19.8 | –
Cc1cn(C2CC(F)C(COP3(=O)OCc4c(F)c(C(C)(C)C)cc(C(C)(C)C)c4O3)O2)c(=O)[nH]c1=O (single isomer, unassigned) [23 - slow, 5′-O-[cyclo-3,5-Di-(tert-butyl)-6-fluoroSaligenyl]-3′-deoxy-3′-fluorothymidine Monophosphate] | 42.6 | –
Cc1cccc2c1OP(=O)(OCC1OC(n3cc(I)c(=O)[nH]c3=O)CC1O)OC2 (single isomer, unassigned) [7 - fast, 5-Iodo-5′-O-cyclo(3-methylSaligenyl)-2′-deoxyuridine Monophosphate] | > 7000 | –
CC(C)(C)c1cc(C(C)(C)C)c2c(c1F)COP(=O)(OC[C@H]1O[C@@H](n3cc(I)c(=O)[nH]c3=O)C[C@@H]1O)O2 (single isomer, unassigned) [8 - fast, 5-Iodo-5′-O-[cyclo-3,5-di-(tert-butyl)-6-fluoroSaligenyl]-2′-deoxyuridine Monophosphate] | > 60000 | –
Cc1cn(C2CC(F)C(COP3(=O)OCc4c(F)c(C(C)(C)C)cc(C(C)(C)C)c4O3)O2)c(=O)[nH]c1=O (single isomer, unassigned) [23 - fast, 5′-O-[cyclo-3,5-Di-(tert-butyl)-6-fluoroSaligenyl]-3′-deoxy-3′-fluorothymidine Monophosphate] | 203 | –
Cc1cccc2c1OP(=O)(OCC1OC(n3cc(I)c(=O)[nH]c3=O)CC1O)OC2 (single isomer, unassigned) [7 - slow, 5-Iodo-5′-O-cyclo(3-methylSaligenyl)-2′-deoxyuridine Monophosphate] | 61.2 | –
CC(C)(C)c1cc(C(C)(C)C)c2c(c1F)COP(=O)(OC[C@H]1O[C@@H](n3cc([125I])c(=O)[nH]c3=O)C[C@@H]1O)O2 (stereo partly drawn) [Compound 8b, 5-[^125I]-Iodo-5′-O-[cyclo-3,5-di-(tert-butyl)-6-fluoroSaligenyl]-2′-deoxyuridine Monophosphate] | – | clearance from blood and normal tissues ([3]; IV administration): very favorable blood clearance curve; major site of normal tissue uptake ([3]; biodistribution data): liver is the major site of the normal tissue uptake
Cc1cccc2c1OP(=O)(OC[C@H]1O[C@@H](n3cc([125I])c(=O)[nH]c3=O)C[C@@H]1O)OC2 (stereo partly drawn) [Compound 7b, 5-[^125I]-Iodo-5′-O-cyclo(3-methylSaligenyl)-2′-deoxyuridine Monophosphate] | – | whole body retention, median [2]: 1.25 % ID; whole body retention [2]: 1.21 (0.12) % ID; reduction in solid tumor deposits as compared to ^125IUdR ([2]; diastereomeric mixtures IP, total average 0.58 mCi, 7 weeks after first dose): ~50%; tumor retention compared to ^125IUdR ([2]; necropsy 4 weeks after the boost dose): significantly higher compared to ^125IUdR
